Experimental data taken from PMC2946321 (Bioorganic & medicinal chemistry, 2010).

Experiments:
sigma-2 (σ2) receptors = biological target: T1, sigma-2 (σ2) receptors (Rattus norvegicus, UniProt Q5U3Y7); assay: Sigma-2 receptor binding, rat liver membranes; conditions: read-out: Ki σ2
T1 sequence (Q5U3Y7 1-176): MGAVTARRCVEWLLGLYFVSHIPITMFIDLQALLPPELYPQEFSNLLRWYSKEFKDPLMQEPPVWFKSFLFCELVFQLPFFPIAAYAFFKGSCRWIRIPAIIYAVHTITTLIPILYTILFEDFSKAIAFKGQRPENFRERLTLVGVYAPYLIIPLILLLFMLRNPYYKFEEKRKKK

human D2(long) [1] = biological target: T2, human D2(long) (Homo sapiens, UniProt P14416); assay: Competitive radioligand binding, 125I-IABN, D2 dopamine receptors
T2 sequence (P14416 whole entry): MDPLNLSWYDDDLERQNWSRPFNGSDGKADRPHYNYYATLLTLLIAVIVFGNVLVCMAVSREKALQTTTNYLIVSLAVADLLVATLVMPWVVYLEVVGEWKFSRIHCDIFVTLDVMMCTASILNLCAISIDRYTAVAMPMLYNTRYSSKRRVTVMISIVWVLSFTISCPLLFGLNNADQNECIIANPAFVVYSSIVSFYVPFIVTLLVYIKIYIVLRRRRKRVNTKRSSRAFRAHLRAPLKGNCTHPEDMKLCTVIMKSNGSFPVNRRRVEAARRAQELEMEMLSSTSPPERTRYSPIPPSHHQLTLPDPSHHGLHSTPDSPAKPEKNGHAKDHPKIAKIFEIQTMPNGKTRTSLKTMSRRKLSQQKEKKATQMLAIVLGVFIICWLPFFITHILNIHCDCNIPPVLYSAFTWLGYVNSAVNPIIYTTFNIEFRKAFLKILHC

sigma-1 (σ1) receptors = sigma-1 (σ1) receptors (Cavia porcellus, UniProt Q60492); assay: Sigma-1 receptor binding, [3H]; design: species or system guinea pig; conditions: read-out: Ki σ1
sigma-1 (σ1) receptors, sequence (Q60492 whole entry): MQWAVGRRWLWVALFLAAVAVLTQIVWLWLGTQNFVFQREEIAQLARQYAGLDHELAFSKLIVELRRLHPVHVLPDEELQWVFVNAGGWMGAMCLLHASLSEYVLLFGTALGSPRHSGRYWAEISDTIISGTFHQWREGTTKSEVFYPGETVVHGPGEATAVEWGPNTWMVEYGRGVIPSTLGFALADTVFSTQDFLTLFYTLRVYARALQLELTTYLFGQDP

human D3 = human D3 (Homo sapiens, UniProt P35462); assay: Competitive radioligand binding, 125I-IABN, D3 dopamine receptors; conditions: read-out: Ki D3
human D3, sequence (P35462 whole entry): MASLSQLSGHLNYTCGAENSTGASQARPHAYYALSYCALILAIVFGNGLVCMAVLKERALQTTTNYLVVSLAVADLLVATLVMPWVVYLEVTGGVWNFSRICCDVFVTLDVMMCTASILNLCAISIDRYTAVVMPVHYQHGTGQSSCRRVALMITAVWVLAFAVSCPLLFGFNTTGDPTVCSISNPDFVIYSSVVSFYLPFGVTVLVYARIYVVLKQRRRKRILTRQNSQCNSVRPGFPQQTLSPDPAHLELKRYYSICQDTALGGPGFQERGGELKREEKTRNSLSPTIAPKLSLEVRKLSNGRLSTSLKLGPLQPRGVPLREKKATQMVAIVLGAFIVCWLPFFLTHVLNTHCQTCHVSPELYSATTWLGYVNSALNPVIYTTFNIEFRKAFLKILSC

human D2(long) [2] = biological target: T2, human D2(long); assay: Forskolin-dependent whole cell adenylyl cyclase inhibition assay; assay type: cell-based; conditions: for effect on quinpirole inhibition of adenylyl cyclase: 10 nM test drug in presence of 10 nM quinpirole; for inhibition of forskolin-dependent cAMP accumulation: 10 nM, human D2long in HEK 293 cells, n = 4; for intrinsic efficacy category at D2 dopamine receptors: based on adenylyl cyclase assay

Molecule	Ki (sigma-2 (σ2) receptors)	D3:D2 (Ki for D3 receptors/Ki for D2 receptors) (human D2(long) [1])	Ki (human D2(long) [1]; read-out: Ki D2)	Ki (sigma-1 (σ1) receptors)	Ki (human D3)	effect on quinpirole inhibition of adenylyl cyclase (human D2(long) [2])	inhibition of forskolin-dependent cAMP accumulation (human D2(long) [2])	intrinsic efficacy category at D2 dopamine receptors (human D2(long) [2])
1-(Benzo[b]thiophen-2-ylmethyl)-4-(4-bromophenyl)piperidin-4-ol oxalate [Compound 20]	1960 ± 177 nM	3.0	46.8 ± 3 nM	2.13 ± 0.44 nM	142 ± 27 nM			
COc1cccc2[nH]cc(CN3CCC(O)(c4ccc(I)cc4)CC3)c12.O=C(O)C(=O)O [Compound 6, 4-(4-Iodophenyl)-1-((4-methoxy-1H-indol-3-yl)methyl)piperidin-4-ol oxalate]						able to attenuate the effect of quinpirole	no appreciable increase or decrease	neutral antagonists
COc1ccc2[nH]cc(CN3CCC(O)(c4ccc(I)cc4)CC3)c2c1.O=C(O)C(=O)O [Compound 7, 4-(4-Iodophenyl)-1-((5-methoxy-1H-indol-3-yl)methyl)piperidin-4-ol oxalate]						able to attenuate the effect of quinpirole	no appreciable increase or decrease	neutral antagonists
CN1CN(c2ccccc2)C2(CCN(Cc3coc4ccccc34)CC2)C1=O.O=C(O)C(=O)O [Compound 25, 8-(Benzofuran-3-ylmethyl)-3-methyl-1-phenyl-1,3,8-triazaspiro[4.5]decan-4-one oxalate]		0.3						
